The source of these data is ChEMBL document CHEMBL1139716, “Naphtho[2,3-b][1,4]-thiazine-5,10-diones and 3-substituted-1,4-dioxo-1,4-dihydronaphthalen-2-yl-thioalkanoate derivatives: synthesis and biological evaluation as potential antibacterial and antifungal agents” (Bioorg Med Chem Lett, 2006).

The subject of one assay is Staphylococcus aureus. Put plainly: Antibacterial activity against Staphylococcus aureus by broth microdilution technique. Type of assay: functional, organism-based. Particulars: for IC50: read-out: IC50. In general terms: Broth dilution looks for growth in wells or tubes with falling amounts of substance.
In another assay the test system is Enterococcus faecalis. Nature of the assay: Antibacterial activity against Streptococcus faecalis by broth microdilution technique. Type of assay: functional, organism-based. To be noted: for IC50: read-out: IC50.
Another assay deals with Klebsiella pneumoniae. Put plainly: Antibacterial activity against Klebsiella pneumoniae by broth microdilution technique. Format: functional, organism-based. Particulars: for IC50: read-out: IC50.
The test system of the next assay is Escherichia coli. Put plainly: Antibacterial activity against Escherichia coli by broth microdilution technique. Type of assay: functional, organism-based. Particulars: for IC50: read-out: IC50.
The subject of another assay is Pseudomonas aeruginosa. Put plainly: Antibacterial activity against Pseudomonas aeruginosa by broth microdilution technique. Format: functional, organism-based. To be noted: for IC50: read-out: IC50.
For a further assay, the system named is Candida albicans. Nature of the assay: Antifungal activity against Candida albicans by broth microdilution technique. Type of assay: functional, organism-based.
The next assay concerns Candida parapsilosis. Put plainly: Antifungal activity against Candida parapsilosis ATCC 22019 by broth microdilution technique. Format: functional, organism-based. To be noted: Lodderomyces parapsilosis.
In another assay the test system is Cryptococcus neoformans. Nature of the assay: Antifungal activity against Cryptococcus neoformans by broth microdilution technique. Type of assay: functional, organism-based.
The next assay relates to Aspergillus fumigatus. Nature of the assay: Antifungal activity against Aspergillus fumigatus by broth microdilution technique. Type of assay: functional, organism-based.
Another assay concerns Sporothrix schenckii. Nature of the assay: Antifungal activity against Sporothrix schenckii by broth microdilution technique. Type of assay: functional, organism-based.
Another assay has as its system Trichophyton benhamiae. Nature of the assay: Antifungal activity against Trichophyton mentagrophytes by broth microdilution technique. Format: functional, organism-based, Arthroderma benhamiae.

≈ marks a conversion by molar mass, not a printed value.

As for `CCOC(=O)C(C)SC1=C(NN)C(=O)c2ccccc2C1=O` (stereo not given), the MIC – broadly, the least concentration at which growth counts as inhibited – with Staphylococcus aureus (Staphylococcus aureus) was 6.25 µg/mL (≈ 19.5 µM); with Enterococcus faecalis (Enterococcus faecalis), 25 µg/mL (≈ 78 µM); in the assay with Klebsiella pneumoniae (Klebsiella pneumoniae), 6.25 µg/mL (≈ 19.5 µM); in the assay on Escherichia coli (Escherichia coli), 6.25 µg/mL (≈ 19.5 µM); in the assay with Pseudomonas aeruginosa (Pseudomonas aeruginosa), 6.25 µg/mL (≈ 19.5 µM); in the assay with Candida albicans, 50 µg/mL (≈ 156 µM). For the same molecule, the minimum inhibitory concentration (MIC) was 25 µg/mL (≈ 78 µM) with Candida parapsilosis; 25 µg/mL (≈ 78 µM) in the assay on Cryptococcus neoformans; 25 µg/mL (≈ 78 µM) with Aspergillus fumigatus; 25 µg/mL (≈ 78 µM) in the assay on Sporothrix schenckii; 6.25 µg/mL (≈ 19.5 µM) against Trichophyton benhamiae. Moreover, the half-maximal inhibitory concentration (IC50) (in general, the point on the concentration scale where inhibition reaches its midpoint) in the assay on Staphylococcus aureus (Staphylococcus aureus) turned out to be 5.65 µg/mL (≈ 17.6 µM); in the assay on Enterococcus faecalis (Enterococcus faecalis) it was 22.3 µg/mL (≈ 69.5 µM); in the assay on Klebsiella pneumoniae (Klebsiella pneumoniae), 5.28 µg/mL (≈ 16.5 µM); in the assay on Escherichia coli (Escherichia coli) it was 5.2 µg/mL (≈ 16.2 µM); in the assay with Pseudomonas aeruginosa (Pseudomonas aeruginosa), 4.62 µg/mL (≈ 14.4 µM); with Candida albicans it was 24.2 µg/mL (≈ 75.7 µM). Also, the IC50 in the assay with Candida parapsilosis worked out at 17.3 µg/mL (≈ 54.1 µM); in the assay on Cryptococcus neoformans, 13.3 µg/mL (≈ 41.6 µM); with Aspergillus fumigatus it was 22.4 µg/mL (≈ 69.8 µM); in the assay with Sporothrix schenckii, 22 µg/mL (≈ 68.7 µM); in the assay with Trichophyton benhamiae it was 4.5 µg/mL (≈ 14 µM).

As to `Cc1sc2c(=O)c3ccccc3c(=O)c=2n(C)c1O`, the MIC in the assay on Staphylococcus aureus (Staphylococcus aureus) was determined as 3.12 µg/mL (≈ 11.4 µM); with Enterococcus faecalis (Enterococcus faecalis), 3.12 µg/mL (≈ 11.4 µM); in the assay on Klebsiella pneumoniae (Klebsiella pneumoniae) it was 3.12 µg/mL (≈ 11.4 µM); against Escherichia coli (Escherichia coli), 1.56 µg/mL (≈ 5.71 µM); in the assay with Pseudomonas aeruginosa (Pseudomonas aeruginosa), 50 µg/mL (≈ 183 µM); against Candida albicans it was 6.25 µg/mL (≈ 22.9 µM). For the same molecule, the MIC came to 12.5 µg/mL (≈ 45.7 µM) against Candida parapsilosis; 3.12 µg/mL (≈ 11.4 µM) with Cryptococcus neoformans; 6.25 µg/mL (≈ 22.9 µM) in the assay on Aspergillus fumigatus; 3.12 µg/mL (≈ 11.4 µM) in the assay with Sporothrix schenckii; 1.56 µg/mL (≈ 5.71 µM) against Trichophyton benhamiae. Moreover, the IC50 in the assay on Staphylococcus aureus (Staphylococcus aureus) worked out at 1.92 µg/mL (≈ 7.02 µM); in the assay with Enterococcus faecalis (Enterococcus faecalis), 2.58 µg/mL (≈ 9.44 µM); with Klebsiella pneumoniae (Klebsiella pneumoniae) it was 1.98 µg/mL (≈ 7.24 µM); in the assay with Escherichia coli (Escherichia coli), 0.96 µg/mL (≈ 3.51 µM); in the assay on Pseudomonas aeruginosa (Pseudomonas aeruginosa), 49.3 µg/mL (≈ 180 µM); in the assay on Candida albicans, 5.3 µg/mL (≈ 19.4 µM). Also, the half-maximal inhibitory concentration (IC50) in the assay on Candida parapsilosis was found to be 10.4 µg/mL (≈ 38 µM); in the assay with Cryptococcus neoformans, 1.54 µg/mL (≈ 5.63 µM); with Aspergillus fumigatus, 3.98 µg/mL (≈ 14.6 µM); with Sporothrix schenckii, 2.84 µg/mL (≈ 10.4 µM); in the assay on Trichophyton benhamiae, 0.9 µg/mL (≈ 3.29 µM).

For the molecule `CCOC(=O)CSC1=C(Nc2ccccc2)C(=O)c2ccccc2C1=O`, the minimum inhibitory concentration (MIC) in the assay with Staphylococcus aureus (Staphylococcus aureus) is 12.5 µg/mL (≈ 34 µM); in the assay with Enterococcus faecalis (Enterococcus faecalis), 25 µg/mL (≈ 68 µM); in the assay with Klebsiella pneumoniae (Klebsiella pneumoniae), 12.5 µg/mL (≈ 34 µM); in the assay with Escherichia coli (Escherichia coli), 6.25 µg/mL (≈ 17 µM); against Pseudomonas aeruginosa (Pseudomonas aeruginosa), 25 µg/mL (≈ 68 µM); with Candida albicans it was above 50 µg/mL. Moreover, the MIC against Candida parapsilosis was above 50 µg/mL; against Cryptococcus neoformans, above 50 µg/mL; in the assay with Aspergillus fumigatus it was above 50 µg/mL; in the assay with Sporothrix schenckii, 50 µg/mL (≈ 136 µM); against Trichophyton benhamiae, 25 µg/mL (≈ 68 µM). In addition, the IC50 in the assay with Staphylococcus aureus (Staphylococcus aureus) was 11.8 µg/mL (≈ 32.2 µM); in the assay on Enterococcus faecalis (Enterococcus faecalis) it was 18.6 µg/mL (≈ 50.7 µM); with Klebsiella pneumoniae (Klebsiella pneumoniae), 9.24 µg/mL (≈ 25.1 µM); in the assay on Escherichia coli (Escherichia coli), 4.32 µg/mL (≈ 11.8 µM); with Pseudomonas aeruginosa (Pseudomonas aeruginosa) it was 22.8 µg/mL (≈ 62.1 µM); in the assay with Candida albicans, above 50 µg/mL. Moreover, the half-inhibitory concentration (IC50) with Candida parapsilosis is above 50 µg/mL; in the assay with Cryptococcus neoformans, above 50 µg/mL; with Aspergillus fumigatus, above 50 µg/mL; in the assay on Sporothrix schenckii, 46.7 µg/mL (≈ 127 µM); in the assay on Trichophyton benhamiae, 23 µg/mL (≈ 62.6 µM).

Turning to `CCOC(=O)C(C)SC1=C(N)C(=O)c2ccccc2C1=O` (stereo not given), the minimal inhibitory concentration (MIC) with Staphylococcus aureus (Staphylococcus aureus) is 6.25 µg/mL (≈ 20.5 µM); in the assay on Enterococcus faecalis (Enterococcus faecalis), 12.5 µg/mL (≈ 40.9 µM); against Klebsiella pneumoniae (Klebsiella pneumoniae), 12.5 µg/mL (≈ 40.9 µM); against Escherichia coli (Escherichia coli), 1.56 µg/mL (≈ 5.11 µM); in the assay on Pseudomonas aeruginosa (Pseudomonas aeruginosa), 50 µg/mL (≈ 164 µM); in the assay on Candida albicans it was 25 µg/mL (≈ 81.9 µM). The MIC in the assay with Candida parapsilosis is 25 µg/mL (≈ 81.9 µM); in the assay on Cryptococcus neoformans, 12.5 µg/mL (≈ 40.9 µM); in the assay on Aspergillus fumigatus, 25 µg/mL (≈ 81.9 µM); against Sporothrix schenckii it was 25 µg/mL (≈ 81.9 µM); against Trichophyton benhamiae, above 50 µg/mL. The half-inhibitory concentration (IC50) in the assay on Staphylococcus aureus (Staphylococcus aureus) amounted to 6.16 µg/mL (≈ 20.2 µM); in the assay on Enterococcus faecalis (Enterococcus faecalis), 8.54 µg/mL (≈ 28 µM); in the assay with Klebsiella pneumoniae (Klebsiella pneumoniae), 11.7 µg/mL (≈ 38.3 µM); in the assay with Escherichia coli (Escherichia coli), 1.18 µg/mL (≈ 3.86 µM); with Pseudomonas aeruginosa (Pseudomonas aeruginosa) it was 34.5 µg/mL (≈ 113 µM); with Candida albicans, 24.2 µg/mL (≈ 79.3 µM). For the same molecule, the 50% inhibitory concentration (IC50) was 21.2 µg/mL (≈ 69.6 µM) with Candida parapsilosis; 12 µg/mL (≈ 39.3 µM) in the assay with Cryptococcus neoformans; 16.6 µg/mL (≈ 54.3 µM) in the assay on Aspergillus fumigatus; 17.9 µg/mL (≈ 58.7 µM) in the assay with Sporothrix schenckii; above 50 µg/mL with Trichophyton benhamiae.

As for `OC(Cn1cncn1)(Cn1cncn1)c1ccc(F)cc1F` [FLUCONAZOLE], the MIC with Candida albicans came out at 0.5 µg/mL (≈ 1.63 µM); against Candida parapsilosis it was 1 µg/mL (≈ 3.27 µM); with Cryptococcus neoformans it was 1 µg/mL (≈ 3.27 µM); against Aspergillus fumigatus, 2 µg/mL (≈ 6.53 µM); with Sporothrix schenckii, 2 µg/mL (≈ 6.53 µM); against Trichophyton benhamiae it was 1 µg/mL (≈ 3.27 µM). In addition, the IC50 was determined as 0.46 µg/mL (≈ 1.5 µM) with Cryptococcus neoformans, 1.06 µg/mL (≈ 3.46 µM) in the assay on Aspergillus fumigatus, 1.45 µg/mL (≈ 4.73 µM) with Sporothrix schenckii and 0.63 µg/mL (≈ 2.06 µM) in the assay with Trichophyton benhamiae.

For the molecule GENTAMICIN, the minimum inhibitory concentration (MIC) was 6.25 µg/mL with Staphylococcus aureus; 0.78 µg/mL against Enterococcus faecalis; 0.78 µg/mL against Klebsiella pneumoniae; 0.18 µg/mL with Escherichia coli; 25 µg/mL in the assay on Pseudomonas aeruginosa.

Take `C[C@@H]1[C@H](O)[C@@H](C)/C=C/C=C/C=C/C=C/C=C/C=C/C=C/[C@H](O[C@@H]2O[C@H](C)[C@@H](O)[C@H](N)[C@@H]2O)C[C@@H]2O[C@](O)(C[C@@H](O)C[C@@H](O)[C@H](O)CC[C@@H](O)C[C@@H](O)CC(=O)O[C@H]1C)C[C@H](O)[C@H]2C(=O)O` [AMPHOTERICIN B]: the IC50 was determined as 0.09 µg/mL (≈ 0.0974 µM) in the assay with Candida albicans; 0.11 µg/mL (≈ 0.119 µM) with Candida parapsilosis; 0.04 µg/mL (≈ 0.0433 µM) in the assay on Cryptococcus neoformans; 0.38 µg/mL (≈ 0.411 µM) in the assay with Aspergillus fumigatus; 0.08 µg/mL (≈ 0.0866 µM) with Sporothrix schenckii; 0.09 µg/mL (≈ 0.0974 µM) in the assay on Trichophyton benhamiae. The MIC amounted to 0.12 µg/mL (≈ 0.13 µM) against Candida albicans; 0.12 µg/mL (≈ 0.13 µM) with Candida parapsilosis; 0.06 µg/mL (≈ 0.0649 µM) against Cryptococcus neoformans; 0.5 µg/mL (≈ 0.541 µM) in the assay on Aspergillus fumigatus; 0.12 µg/mL (≈ 0.13 µM) in the assay with Sporothrix schenckii; 0.12 µg/mL (≈ 0.13 µM) with Trichophyton benhamiae.
